From patent US9110076B2, “Method for quantifying modified peptides” (HVIVO SERVICES LIMITED, priority 2009, dated 2015)

What was measured:
HEL = test: Sensitivity of AML cell lines to drug treatment (MTS assay); type: cell-based; conditions: 72 h
Procedure: (§1) Sensitivity of AML cell lines to drug treatment. Eight cell lines (AML-193, CMK, CTS, HEL, Kasumi-1, KG-1, MV4-11 and P31/FUJ) were seeded in 96 well plates at 1×10^5 cell/ml in triplicate for each condition. After a recovery period of 2 h, cells were treated with increasing concentrations (1 nM, 10 nM, 100 nM, 1 μM and 10 μM) of FLT3 inhibitor, MEK I inhibitor, JAK I inhibitor, LY294002, PI-103 and IC87114. As controls, cells were both treated with the vehicle (DMSO) and left untreated. After 72 hours treatment, cell viability was assessed by MTS assay (CellTiter 96® AQueous One Solution Cell Proliferation assay, Promega Corporation, Madison, Wis., USA).

AML-193 = test: as above; type: cell-based; conditions: 72 h
Procedure: as §1

MV4-11 = test: as above; type: cell-based; conditions: 72 h
Procedure: as §1

P31/FUJ = test: as above; type: cell-based; conditions: 72 h
Procedure: as §1

NIH-3T3 fibroblasts = test: TIQUAS quantification of phosphorylation sites in starved, serum-stimulated cells with or without wortmannin pre-incubation; type: cell-based, murine; conditions: of 2,350 phosphorylated peptides quantified; WM treatment of cells prior to serum stimulation; 4 experiments
Procedure: The novel quantitative techniques of the invention were used to quantify phosphorylation sites in NIH-3T3 fibroblasts, which were starved and then stimulated with serum with or without pre-incubation with the pan-PI3K inhibitor wortmannin (WM). These experiments were performed 4 times. […] Cells were treated as indicated, lysed with a urea-based buffer to obtain nuclear as well as cytosolic proteins and proteins digested. Resultant phosphorylated peptides were enriched by IMAC and TiO2 chromatography and quantified by LC-MS using a computer program developed by the inventors ([…]) (Cutillas and Vanhaesebroeck, Molecular & Cellular Proteomics 6, 1560-1573 (2007)). FIG. 2(B) gives a summary of the data obtained and a snapshot of the data sorted by probability.

CC(C)(C)c1nc2c3cc[nH]c(=O)c3c3cc(F)ccc3c2[nH]1 [JAK I]
sensitivity of cell line to inhibitor (survival by MTS assay) (HEL): resistant | sensitivity of cell line to inhibitor (survival by MTS assay) (AML-193): sensitive

Oc1cccc(-c2nc(N3CCOCC3)c3oc4ncccc4c3n2)c1 [PI-103]
sensitivity of cell line to inhibitor (survival by MTS assay) (MV4-11): sensitive | sensitivity of cell line to inhibitor (survival by MTS assay) (P31/FUJ): resistant

COC[C@H]1OC(=O)c2coc3c2[C@@]1(C)C1=C(C3=O)[C@@H]2CCC(=O)[C@@]2(C)C[C@H]1OC(C)=O [WM, wortmannin]
phosphorylated peptides significantly (p<0.05) affected by WM treatment (NIH-3T3 fibroblasts): 265
